Source: patent US4223146A, “4,5,6,7-Tetrahydroimidazo-[4,5-c]-pyridine derivatives” (Farmitalia Carlo Erba S.p.A., priority 1978, dated 1980)
Where two headings read alike, the source gives them in different places. Blank lines part the entries; values can stand above or below the compound they belong to.

Assays:
[1] = tested on: cysteamine-induced duodenal lesions; experiment: Inhibition of Cysteamine-Induced Duodenal Lesions in Rats; type: in vivo, Sprague-Dawley rats (male); conditions: Rattus norvegicus
Experimental: (5) Inhibition of Cysteamine-Induced Duodenal Lesions in Rats.
Six Sprague-Dawley male rats (200-225 g) were used for each group. Twenty-four hours before the test, the rats were deprived of food but allowed free access to water. Cysteamine HCl (400 mg/Kg) dissolved in physiological saline was administered subcutaneously.
Antagonists were given orally 60 minutes, and subcutaneously 30 minutes, before the cysteamine treatment. The animals were kept fasting completely for 18-24 hours after cysteamine administration, then sacrificed by an overdose of ether.
The stomach and duodenum of each rat were excised to determine the presence of gastroduodenal lesions. The sum of the area (mm^2) of lesions for each rat was measured under a dissecting microscope (10X) with a square grid and then used as an ulcer index. The percentage inhibition was calculated in respect of the ulcer index of the control group.

Toxicity (LD50) in mice = conditions: mouse, in vivo, po, os
Experimental: Four compounds were examined also for the activity on acetylsalicyclic acid- and cysteamine-induced ulcers and their toxicity was also determined in mice.

[2] = Anticholinergic Activity in Rats; parameters: species or system Sprague-Dawley rats (male); conditions: rat, in vivo
Experimental: (3) Anticholinergic Activity in Rats. Considering that many anti-ulcer agents display, as does atropine, a remarkable but undesired anti-cholinergic activity, some derivatives were assessed for their antagonism against chromodacryorrhea induced by carbacholine in rats. (Winburg M. et al, J. Pharm. Exp. Therap., 1949, 95, 53).

gastric secretion = experiment: Inhibition of Gastric Secretion in Rats (pylorus ligature); type: in vivo, Sprague-Dawley rats (male); conditions: Rattus norvegicus, sc, 4 h, s.c. at the time of ligature, read-out: ED50 Antisecretory s.c.
Experimental: (2) Inhibition of Gastric Secretion in Rats (Shay, Gastroenterology, 1945, 43, 5).
Gastric antisecretory activity was evaluated in rats by the pylorus ligature technique. Six Sprague-Dawley male rats (110-130 g) were used for each group. Twenty-four hours before the test, the rats were deprived of food but their water supply was maintained. On the day of the operation, the pylorus was ligated under light ether anaesthesia. Four hours after the ligature, the rats were sacrificed, the stomach secretion was collected and centrifuged at 3500 r.p.m. for 10 minutes, and the volume, less sediment, was determined.
The amount of the free hydrochloric acid in the gastric juice was determined by titration against 0.01 N sodium hydroxide, using Topfer's Indicator. Each compound was injected subcutaneously at the time of ligature.

[3] = tested on: acetylsalicylic acid-induced gastric ulcers; experiment: Inhibition of Acetylsalicylic Acid-Induced Gastric Ulcers in Rats; type: in vivo, Sprague-Dawley rats (male); conditions: Rattus norvegicus, 4 h
Experimental: (4) Inhibition of Acetylsalicylic Acid-Induced Gastric Ulcers in Rats.
Six Sprague-Dawley male rats (200-250 g) were used for each group. Twenty-four hours before the test, the rats were deprived of food but their water supply was maintained. Acetylsalicylic acid (100 mg/Kg) suspended in 5% gum arabic solution was given orally to the rats. Antagonists, at 3 dose levels, were given orally 60 minutes, and subcutaneously 30 minutes, before the acetylsalicylic acid treatment.
After sacrificing the animals, four hours after administration of the antagonist, the stomachs were removed, slightly inflated and immersed in 1% formalin solution for 10 minutes for fixation.
Subsequently, the stomachs were incised along the greater curvature and the lengths of lesions measured under a dissecting microscope (10 X) with a square grid. The sum of the lengths (mm) of the lesions per rat was used as the ulcer index. The percentage inhibition was calculated in respect of the ulcer index of the control group.

restraint ulcer = experiment: Inhibition of Restraint Ulcer in Rats; type: in vivo, Sprague-Dawley rats (male); conditions: Rattus norvegicus
Experimental: (B 1) Inhibition of Restraint Ulcer in Rats (Bonfils et al, Therapie, 1960, 15, 1096).
Six Sprague - Dawley male rats (100-120 g) fasted for 24 hours were used for each group. A square flexible small-mesh wire netting was used for immobilization. After 4 hours immobilization the rats were sacrificed, their stomachs were removed, and lesions counted under a dissecting microscope.
The results obtained are reported below in Table 1, wherein the values are given as ED50.
The compounds were administered subcutaneously (s.c.) immediately before the immobilization or orally (os) one hour before.

[4] = po, orally 60 minutes before cysteamine, read-out: ED50 Cysteamine os
[5] = sc, s.c. 30 minutes before cysteamine, read-out: ED50 Cysteamine s.c.
[6] = po, os, read-out: ED50 Anticholinergic os
[7] = sc, read-out: ED50 Anticholinergic s.c.
[8] = po, orally 60 minutes before acetylsalicylic acid, read-out: ED50 Acetylsalicilic acid os
[9] = sc, s.c. 30 minutes before acetylsalicylic acid, read-out: ED50 Acetylsalicilic acid s.c.
[10] = po, 1 h, orally one hour before immobilization, read-out: ED50 Antiulcer os
[11] = sc, 4 h, s.c. immediately before the immobilization, read-out: ED50 Antiulcer s.c.

ED50 [2, 6]: 50 mg/kg
ED50 [2, 7]: 7 mg/kg
Structure (SMILES): CC(C)NC(=S)N1CCc2ncn(C)c2C1 [II CH3 H i.Pr, 3-Methyl-5-(N-isopropylthiocarbamoyl)-4,5,6,7-tetrahydroimidazo-[4,5-c]-pyridine]

ED50 [2, 6]: 100 mg/kg
ED50 [2, 7]: 25 mg/kg
Structure (SMILES): CC(C)NC(=S)N1CCc2c(ncn2C)C1 [I CH3 H i.Pr, 1-Methyl-5-(N-isopropylthiocarbamoyl)-4,5,6,7-tetrahydroimidazo-[4,5-c]-pyridine]
ED50 (gastric secretion): 26 mg/kg
ED50 (restraint ulcer; [10]): 4.5 mg/kg
ED50 (restraint ulcer; [11]): 1.2 mg/kg

ED50 [2, 6]: 100 mg/kg
ED50 [2, 7]: 50 mg/kg
Structure (SMILES): CNC(=S)N1CCc2ncn(C)c2C1 [II CH3 H CH3, reference compound]
ED50 (gastric secretion): 50 mg/kg
ED50 (restraint ulcer; [10]): 50 mg/kg
ED50 (restraint ulcer; [11]): 50 mg/kg

More lines, now with the values behind:

Structure (SMILES): CCC1c2ncn(CC)c2CCN1C(=S)NC(C)C (stereo not drawn) [I C2 H5 C2 H5 i.Pr, 1,4-Diethyl-5-(N-isopropylthiocarbamoyl)-4,5,6,7-tetrahydroimidazo-[4,5-c]-pyridine]
ED50 [1, 4]: 10 mg/kg
ED50 [1, 5]: 0.5 mg/kg
LD50 (Toxicity (LD50) in mice): > 2500 mg/kg
ED50 [2, 6]: > 400 mg/kg
ED50 [2, 7]: > 200 mg/kg
ED50 (gastric secretion): 6 mg/kg
ED50 [3, 8]: 0.7 mg/kg
ED50 [3, 9]: 0.7 mg/kg
ED50 (restraint ulcer; [10]): 3.5 mg/kg
ED50 (restraint ulcer; [11]): 2 mg/kg

Structure (SMILES): CCC1c2c(ncn2C)CCN1C(=S)NC(C)C (stereo not drawn) [II CH3 C2 H5 i.Pr, 3-Methyl-4-ethyl-5-(N-isopropylthiocarbamoyl)-4,5,6,7-tetrahydroimidazo-[4,5-c]-pyridine, reference compound]
ED50 [1, 4]: 100 mg/kg
ED50 [1, 5]: 50 mg/kg
LD50 (Toxicity (LD50) in mice): 980 mg/kg
ED50 [2, 6]: 60 mg/kg
ED50 [2, 7]: 40 mg/kg
ED50 (gastric secretion): 50 mg/kg
ED50 [3, 8]: 40 mg/kg
ED50 [3, 9]: 25 mg/kg
ED50 (restraint ulcer; [10]): 50 mg/kg
ED50 (restraint ulcer; [11]): 10 mg/kg

Structure (SMILES): CCC1c2ncn(C)c2CCN1C(=S)NC(C)C (stereo not drawn) [I CH3 C2 H5 i.Pr, 1-Methyl-4-ethyl-5-(N-isopropylthiocarbamoyl)-4,5,6,7-tetrahydroimidazo-[4,5-c]-pyridine]
ED50 [1, 4]: 40 mg/kg
ED50 [1, 5]: 20 mg/kg
LD50 (Toxicity (LD50) in mice): > 2500 mg/kg
ED50 [2, 6]: > 100 mg/kg
ED50 [2, 7]: > 100 mg/kg
ED50 (gastric secretion): 20 mg/kg
ED50 [3, 8]: 20 mg/kg
ED50 [3, 9]: 10 mg/kg
ED50 (restraint ulcer; [10]): 2.5 mg/kg
ED50 (restraint ulcer; [11]): 4 mg/kg

Structure (SMILES): C/N=C(\S)NCCSCc1[nH]cnc1C [Methiamide]
ED50 [2, 6]: 85 mg/kg
ED50 [2, 7]: 65 mg/kg

Structure (SMILES): CNC(=S)N1CCc2c(ncn2C)C1 [I CH3 H CH3, 1-Methyl-5-(N-methylthiocarbamoyl)-4,5,6,7-tetrahydroimidazo-[4,5-c]-pyridine]
ED50 [2, 6]: > 100 mg/kg
ED50 [2, 7]: > 100 mg/kg
ED50 (gastric secretion): 30 mg/kg
ED50 (restraint ulcer; [10]): 25 mg/kg
ED50 (restraint ulcer; [11]): 15 mg/kg

Structure (SMILES): CCC1c2c(ncn2CC)CCN1C(=S)NC(C)C (stereo not drawn) [II C2 H5 C2 H5 i.Pr, 3,4-diethyl-5-(N-isopropylthiocarbamoyl)-4,5,6,7-tetrahydroimidazo-[4,5-c]-pyridine, reference compound]
ED50 [1, 4]: 40 mg/kg
ED50 [1, 5]: 5.5 mg/kg
LD50 (Toxicity (LD50) in mice): 870 mg/kg
ED50 [2, 6]: > 100 mg/kg
ED50 [2, 7]: > 100 mg/kg
ED50 (gastric secretion): 10 mg/kg
ED50 [3, 8]: 9 mg/kg
ED50 [3, 9]: 6.5 mg/kg
